What was measured:
[1] = Release rates of histrelin from Tecophilic, Tecoflex and Carbothane polyurethane implants (Example 3); format: physicochemical; details: for Release rate normalized to surface area of the implant: 2% SA, 50 mg API
Description: Tables 2A-C show release rates of histrelin from three different classes of polyurethane compounds (Tecophilic®, Tecoflex® and Carbothane®). The release rates have been normalized to surface area of the implant, thereby adjusting for slight differences in the size of the various implantable devices. Histrelin is very soluble in water. Typically, a Log P value of greater than about 2.0 is considered to be not readily soluble in aqueous solution. The polyurethanes were selected to have varying affinities for water soluble active agents and varying flexibility (as indicated by the variation in flex modulus). […] Polyurethanes are available or can be prepared, for example, with a range of EWCs or flex moduli (Table 2). Tables 2A-C show normalized release rates for various active ingredients from polyurethane compounds. Tables 2D-F show the non-normalized release rates for the same active ingredients, together with implant composition.

[2] = In vitro elution of histrelin from HP-60D-20 polyurethane implant (Example 1); format: physicochemical; details: HP-60D-20 implant, approx. 37° C.
Protocol: HP-60D-20 is extruded to tubes with thickness of 0.30 mm with inside diameter of 1.75 mm. The tubes are then cut into 25 mm in length. One side of the tube is sealed with heat using a heat sealer. The sealing time is less than one minute. Four pellets of histrelin acetate are loaded into the tube. Each pellet weighs approximately 13.5 mg for a total of 54 mg. Each pellet is comprised of a mixture of 98% histrelin and 2% stearic acid. The second end open of the tube is sealed with heat in the same way as for the first end. The loaded implant is then conditioned and primed. The conditioning takes place at room temperature in a 0.9% saline solution for one day. Upon completion of the conditioning, the implant undergoes priming. The priming takes place at room temperatures in a 1.8% saline solution for one day. Each implant is tested in vitro in a medium selected to mimic the pH found in the human body. The temperature of the selected medium was kept at approximately 37° C. during the testing. The release rates are shown on FIG. 4 and Table 2.

Which “Release rate normalized to surface area of the implant” value (shortened to “Release rate normalized”) ([1]; Carbothane PC-3595A, F.M.: 4,500) does the source give for `CCNC(=O)[C@@H]1CCCN1C(=O)[C@H](CCCNC(=N)N)NC(=O)[C@H](CC(C)C)NC(=O)[C@@H](Cc1cn(Cc2ccccc2)cn1)NC(=O)[C@H](Cc1ccc(O)cc1)NC(=O)[C@H](CO)NC(=O)[C@H](Cc1c[nH]c2ccccc12)NC(=O)[C@H](Cc1cnc[nH]1)NC(=O)[C@@H]1CCC(=O)N1` [Histrelin Acetate, Histrelin acetate] here?
Its value is 0.2 μg/day/cm^2.

What about the Non-normalized release rate ([1]; Carbothane PC-3595A, F.M.: 4,500, ID 1.85 mm, wall 0.20 mm, L 25.25 mm, 1.625 cm^2) of the same compound?
Its Non-normalized release rate is 0.4 µg/day.

What about the “Release rate normalized” value ([1]; Tecoflex EG 100A, F.M.: 10,000) of the same compound?
Its value is 0.3 μg/day/cm^2.

And the Non-normalized release rate ([1]; Tecoflex EG 100A, F.M.: 10,000, ID 1.85 mm, wall 0.20 mm, L 25.56 mm, 1.645 cm^2)?
Its Non-normalized release rate is 0.5 µg/day.

And the “Release rate normalized” value ([1]; Tecophilic HP-60D-20, 15% EWC)?
Its value is 93 μg/day/cm^2.

And the Non-normalized release rate ([1]; Tecophilic HP-60D-20, 15% EWC, ID 1.80 mm, wall 0.30 mm, L 24.5 mm, 1.616 cm^2)?
The Non-normalized release rate was 150 µg/day.

What about the “Release rate normalized” value ([1]; Tecophilic HP-60D-35, 24% EWC) of the same compound?
The value was 248 μg/day/cm^2.

And the Non-normalized release rate ([1]; Tecophilic HP-60D-35, 24% EWC, ID 1.80 mm, wall 0.30 mm, L 24.5 mm, 1.616 cm^2)?
Its Non-normalized release rate is 400 µg/day.

What about the “Release rate normalized” value ([1]; Tecophilic HP-60D-60, 31% EWC) of the same compound?
The value was 309 μg/day/cm^2.

And the Non-normalized release rate ([1]; Tecophilic HP-60D-60, 31% EWC, ID 1.80 mm, wall 0.30 mm, L 24.5 mm, 1.616 cm^2)?
Its Non-normalized release rate is 500 µg/day.

What about the Histrelin elution rate ([2]; week 1 of elution) of the same compound?
The Histrelin elution rate was 451.733 µg/day.

And the Histrelin elution rate ([2]; week 2 of elution)?
Its Histrelin elution rate is 582.666 µg/day.

And the Histrelin elution rate ([2]; week 3 of elution)?
Its Histrelin elution rate is 395.9 µg/day.

What about the Histrelin elution rate ([2]; week 4 of elution) of the same compound?
Its Histrelin elution rate is 310.29 µg/day.

What about the Histrelin elution rate ([2]; week 5 of elution) of the same compound?
Its Histrelin elution rate is 264.92 µg/day.

What about the Histrelin elution rate ([2]; week 6 of elution) of the same compound?
Its Histrelin elution rate is 247.17 µg/day.

And the Histrelin elution rate ([2]; week 7 of elution)?
Its Histrelin elution rate is 215.93 µg/day.

What about the Histrelin elution rate ([2]; week 8 of elution) of the same compound?
Its Histrelin elution rate is 201.78 µg/day.

And the Histrelin elution rate ([2]; week 9 of elution)?
The Histrelin elution rate was 183.22 µg/day.

And the Histrelin elution rate ([2]; week 10 of elution)?
The Histrelin elution rate was 174.99 µg/day.

And the Histrelin elution rate ([2]; week 11 of elution)?
Its Histrelin elution rate is 167.72 µg/day.

And the Histrelin elution rate ([2]; week 12 of elution)?
Its Histrelin elution rate is 158.37 µg/day.

And the Histrelin elution rate ([2]; week 13 of elution)?
Its Histrelin elution rate is 153.95 µg/day.

What about the Histrelin elution rate ([2]; week 14 of elution) of the same compound?
The Histrelin elution rate was 146.46 µg/day.

And the Histrelin elution rate ([2]; week 15 of elution)?
The Histrelin elution rate was 139.83 µg/day.

And the Histrelin elution rate ([2]; week 16 of elution)?
Its Histrelin elution rate is 129.6 µg/day.

What about the Histrelin elution rate ([2]; week 17 of elution) of the same compound?
Its Histrelin elution rate is 124.46 µg/day.

What about the Histrelin elution rate ([2]; week 18 of elution) of the same compound?
The Histrelin elution rate was 118.12 µg/day.

And the Histrelin elution rate ([2]; week 19 of elution)?
Its Histrelin elution rate is 120.35 µg/day.

From patent US20110236456A1, “IMPLANTABLE DEVICE FOR THE DELIVERY OF HISTRELIN AND METHODS OF USE THEREOF” (Endo Pharmaceuticals Solutions Inc., priority 2008, published 2011)
